# From patent US20240140953A1, “INHIBITORS OF MENIN-MLL INTERACTION” (BIOMEA FUSION, INC., priority 2018, published 2024)
# “Also recorded” adds a separate entry of the source. Read-outs that look alike come from different tables or passages of the source.
# What was measured:
# [1] = test system: HL-60; assay: Proliferation study, CellTiterGlo, 4 days (Example 102), HL-60; format: cell-based; details: HL-60, 4 days treatment; for HL-60 % max: maximal inhibition; for IC50: Homo sapiens, 96 h, CellTiterGlo
# Text: The objective of the study was to evaluate the ability of representative compounds of the present invention, inhibitors of Menin/MLL interaction to inhibit cell proliferation. The proliferation inhibitory effect was investigated in two human MLL-leukemia cells selected on the bases of MLL fusion protein and listed in Table 102. HL-60 cell line was used as negative control.
# ATP is present in all metabolically active cells and is considered as a marker for cell viability and proliferation. The metabolic cell activity was determined using the CellTiter-Glo kit from Promega, an ATP monitoring system based on the production of luminescence by the reaction of ATP with added UltraGlo® recombinant luciferase (Kawano et al., 2016), according to the supplier's experimental recommendations.
# The described assay evaluates the ability of 4 representative compounds to inhibit the cell proliferation in the human MLL-leukemia cells plus a negative control cell line.
# The assay provides potency values (IC50) for each test compound at a single time point Day 4 (T4).
# Seven concentrations of the compounds (2.00E-05-6.67E-06-2.22E-06-7.41E-07-2.47E-07-8.23E-08-2.74E-08M), were assessed in duplicate in an individual test occasion in all the cell lines. MI-503 (Borkin et al., 2015) was used as reference compound and was tested at the same concentrations as the NCEs. 100% of proliferation is represented by the untreated cells (0.2% DMSO). The cell growth was monitored up to 4 days in culture.
# MV4-11, MOLM-13 and HL-60 cells (see Table 2) were maintained in RPMI-1640 medium (Invitrogen, Cat. n. 618700, Batch n. 1965930) supplemented with 10% of Heat Inactivated FBS (Invitrogen, Cat n. 10500, Batch n. 08Q8078K) and 1% Pen-Strep (Invitrogen, Cat. N. 15140, Batch n. 1910859) and cultured at 37° C. in a humidified incubator with 5% CO2. All the cell lines grow in suspension and the cell density was maintained in a range of 2×10^5-1×10^6 viable cells/ml. Cells were pelleted at 130 g×5 min and conditioned medium was used to dilute the cell suspension.
# Test items were dissolved in glass vials at 10 mM in DMSO with purity ≥99.9% (Sigma, D8418, batch n. SHBH4245V) and stored at −20° C. in 1.5 mL Eppendorf tubes.
# Serial dilutions 1 to 3 in DMSO 100% were prepared starting from a 10 mM stock solutions to generate 7 points concentration response curve (CRC).
# For each plate to test, one 0.4 μL copy plate and four 0.3 μL copy plates were then stamped into 96-well plates not treated for cell adhesion (Sarstedt—cat.no. 82.1581.001) by acoustic liquid Handling, Echo, at a concentration which was 500 fold the final assay concentration. Stamped plates were stored at −20° C. The final concentrations for the reference compound, MI-503, and the test items were: 2.00E-05, 6.67E-06, 2.22E-06, 7.41E-07, 2.47E-07, 8.23E-08 and 2.74E-08 M.
# Cells were plated in 96-well flat bottom microtiter plates at cell density of 15,000 cells/ml for HL-60, 1000 cells/ml for MOLM-13 and 10,000 cell/ml for MV4-11. Cells were treated with 0.2% DMSO (Sigma, D8418, batch n. SHBH4245V) or serial dilutions of compounds (0.027 μM-20 μM) in DMSO (0.2% final concentration). Cells were incubated in a 5% CO2 incubator at 37° C. for 4 days. A CellTiterGlo viability assay (Promega) was employed. Luminescence was read by using VictorV (Perkin Elmer) multilabel plate reader using the standard protocol for luminescence in 96 well plate. The experiment was performed in duplicate.
# Data were expressed as % of inhibition compared to the 0.2% DMSO negative control, and was calculated as follows: […]
# CRCs were analysed by GraphPad and IC50 values were calculated by non-linear regression using 4 parameter-logistic equation. IC50 (μM) values were reported in the final data table. The curve fittings were performed leaving free all the parameters. Any constrain were reported in the results table.
# [2] = test system: MOLM-13; assay: Long term proliferation assay (Table 3A), MOLM-13; format: cell-based; details: Homo sapiens
# [3] = read-out: HL-60 pIC50 (converted)
# [4] = 96 h, MOLM-13, Day 4, read-out: MOLM-13 Day 4 IC50
IC50 ([1]; read-out: HL-60 IC50),"IC50 [1, 3]","IC50 [2, 4]","IC50 ([2]; 264 h, MOLM-13, Day 11, read-out: MOLM-13 Day 11 IC50)",Structure (SMILES),HL-60 % max [1],inhibition of cell viability (in words) ([1]; up to 20 μM)
320 nM,316 nM,324 nM,155 nM,"O=C(Nc1ccc(-c2cc3c(N4CCOCC4)ncnc3[nH]2)cc1)Nc1cc(-c2cccnc2)n[nH]1 [Compound 9, 1-{4-[4-(morpholin-4-yl)-7H-pyrrolo[2,3-d]pyrimidin-6-yl]phenyl}-3-[3-(pyridin-3-yl)-1H-pyrazol-5-yl]urea]",69%,
510 nM,513 nM,260 nM,,"Cn1nc(-c2cccnc2)cc1CC(=O)Nc1ccc(-c2cc3c(N4CCOCC4)ncnc3[nH]2)cc1 [Compound 11, 2-[1-methyl-3-(pyridin-3-yl)-1H-pyrazol-5-yl]-N-{4-[4-(morpholin-4-yl)-7H-pyrrolo[2,3-d]pyrimidin-6-yl]phenyl}acetamide]",102%,
> 20000 nM,> 20000 nM,710 nM,,"O=C(Cc1cc(-c2cccnc2)n[nH]1)Nc1ccc(-c2nc3c(N4CCOCC4)ncnc3[nH]2)cc1 [Compound 12, N-{4-[6-(morpholin-4-yl)-9H-purin-8-yl]phenyl}-2-[3-(pyridin-3-yl)-1H-pyrazol-5-yl]acetamide]",,not active up to the highest concentration tested; also recorded: completely inactive up to the highest concentration tested
